Data: patent US20120265121A1, “PHTHALOCYANINE-BASED ANTIFUNGAL AGENTS” (CASE WESTERN RESERVE UNIVERSITY, priority 2011, published 2012)

Key:
[1] = test system: C. albicans (strain SC-5134); test: FITC-labeled Annexin V staining of protoplasts (phosphatidylserine externalization); format: cell-based, Candida albicans; settings: positive controls: 20 mM H2O2 or 60 μM acetic acid, 4 hr
Protocol: Cells were then incubated for 4 hr before staining with FITC-labeled Annexin V. FIG. 4(a) provides confocal images of FITC-labeling of cells that had been treated with H2O2 or Pc 4-PDT. Scale bar, 20 μm. FIG. 4(b) provides a bar graph showing the results. For each experiment over 50-100 protoplasts cells were counted per sample. […] Cells were counted by eye using a Zeiss AxiovertTM S100 inverted epifluorescence microscope. Values represent the mean±S.E. from at least three independent experiments. […] Apoptosis Analyses: (A) FITC-labeled Annexin V staining-To assess the externalization of phosphatidylserine, protoplasts of C. albicans were stained with FITC-labeled Annexin V using the Annexin V-FLUOS staining kit (Roche, Germany) with minor modifications. Madeo et al., J Cell Biol 139:729-734 (1997); Park et al., Biochem Biophys Res Commun 394:170-172 (2010). Briefly, control and treated cells were washed three times with 1× PBS before incubating at 37° C. for 30 min in a protoplasting solution (50 mM KH2PO4, 5 mM EDTA and 50 mM DTT). Then cells were digested at 37° C. for 45 min in an enzyme solution (50 mM K2HPO4, 40 mM 2-mercaptoethanol, 3 μg/mL Chitinase, 1.8 μg/mL […], 0.15 mg/mL Zymolyase and 2.4 M sorbitol). 1× PBS was added to each sample and incubated for 30 min at room temperature in all experiments. Protoplasts were then incubated with 100 μL of Annexin V-FLUOS labeling solution for 15 min at 25° C. FITC-labeled Annexin V fluorescence was detected by both widefield (Leica DMI6000B microscope; Leica Microsystems, Inc., Bannockburn, Ill., USA) and confocal fluorescence microscopy.

[2] = test system: C. albicans (strain SC-5134); test: Chromatin condensation by confocal microscopy; format: cell-based, Candida albicans; settings: highest dose of Pc 4-PDT or peroxide, 24 hr after treatment
Protocol: Confocal Microscopy: To investigate the uptake and localization of Pc 4, cells in standard growth medium plus 10% Fetal Bovine Serum (FBS) were loaded with 0.2 μM Pc 4 and incubated for 16 to 18 hr. Thirty minutes prior to imaging Pc 4, 50 nM MitoTracker Red (Invitrogen, Carlsbad, Calif., USA) or 50 μg/mL AlexaFluor 488-conjugated Concanavalin (Con) A (Invitrogen, Carlsbad, Calif., USA) and/or 10 μg/mL Hoechst 33342 (Invitrogen, Carlsbad, Calif., USA) was loaded onto cells. Five to 10 μL of stained cells were placed on a slide with a glass coverslip and all images acquired using an UltraVIEW VoX spinning disk confocal system (PerkinElmer, Waltham, Mass., USA), which was mounted on a Leica DMI6000B microscope (Leica Microsystems, Inc., Bannockburn, Ill., USA) equipped with a HCX PL APO 100×/1.4 oil immersion objective. Confocal images of Pc 4 fluorescence, MitoTracker Red, ConA (or FITC-labeled Annexin V) and Hoechst 33342 were collected using solid-state diode lasers, with 640-nm, 561-nm, 488-nm and 405-nm excitation light, respectively, and with appropriate emission filters.

| Structure (SMILES) | Annexin V positive cells [1] [%] | chromatin condensation [2] |
| --- | --- | --- |
| CC(=O)O [acetic acid] | ~27 | – |
| OO [H2O2, hydrogen peroxide, reference compound] | ~27 | detected |
